This passage reports inhibition and IC50 results from ChEMBL document CHEMBL5380800, “Discovery of Small-Molecule Autophagy Inhibitors by Disrupting the Protein-Protein Interactions Involving Autophagy-Related 5” (J Med Chem, 2023).

pIC50: −log10 of the molar value.

As usually defined, the inhibition is how much of the control response was suppressed. For orientation: pIC50 means the IC50 on a negative log10 scale, so that one unit is a factor of ten.

The subject of assay [1] is COS-7. The assay is described as follows: Inhibition of autophagy in African green monkey COS-7 cells at 20 uM by flow cytometry analysis relative to control. The class given is functional. Conditions: Chlorocebus aethiops. (A flow cytometer gives signals particle by particle.)
The nature of assay [2]: Inhibition of ATG5-ATG16L1 (unknown origin) protein protein interaction expressed in Escherichia coli BL21 (DE3) by HTRF method. Also on record: species or system Homo sapiens. The note with it: for pIC50: read-out: IC50. (In general: Time-resolved FRET reads energy transfer from a long-lived donor to a nearby acceptor.)
A short description of assay [3]: Inhibition of ATG5-TECAIR (unknown origin) protein protein interaction expressed in Escherichia coli BL21 (DE3) by HTRF method. Also on record: species or system Homo sapiens. Conditions: for pIC50: read-out: IC50; call rule not given here.

`CCCCN1C(=O)/C(=C/c2ccc(-c3ccc([N+](=O)[O-])cc3)o2)C=C1c1ccccc1`: 20 µM produced 77.8% inhibition in assay [1].

On to `CC1=NN(c2ccc(C(=O)O)cc2)C(=O)/C1=C\c1ccc(-c2cccc([N+](=O)[O-])c2)s1`, for which the negative logarithm of the IC50 (pIC50) in assay [2] is 4.95; in assay [3], 4.64.

`CC1=NN(c2ccc(C(=O)O)cc2)C(=O)/C1=C\c1ccc(-c2cc(C)c(C)cc2[N+](=O)[O-])o1`: the pIC50 in assay [2] and in assay [3] was less than 4.48 in each case.

For the molecule `CC1=NN(c2ccc(C(=O)O)cc2)C(=O)C1Cc1ccc(-c2cccc([N+](=O)[O-])c2)s1` (centres undefined), the IC50 result in assay [2] is given as “Not Active”. The pIC50 in assay [3] was less than 4.48.

On to `O=C(O)CCN1C(=O)/C(=C/c2ccc(-c3ccc([N+](=O)[O-])cc3Cl)o2)SC1=S`, for which the negative-log IC50 (pIC50) in assay [2] is 4.80; in assay [3], 4.64.

Turning to `O=C(O)CCN1C(=O)/C(=C/c2cc([N+](=O)[O-])ccc2OCc2ccccc2Cl)SC1=S`, the negative-log IC50 (pIC50) in assay [2] was 4.80; in assay [3] it was 4.59.

For the molecule `CC1=NN(c2ccc(-n3cnnn3)cc2)C(=O)/C1=C\c1ccc(-c2cc(C)c(C)cc2[N+](=O)[O-])o1`, the pIC50 in assay [2] and in assay [3] was less than 4.48 in each case.

Regarding `CC1=NN(c2ccc(C(=O)O)cc2)C(=O)/C1=C\c1ccc(-c2ccccc2C(F)F)o1`, the negative logarithm of the IC50 (pIC50) is 4.67 in assay [2] and less than 4.48 in assay [3].

For the molecule `CCOC(=O)CN1C(=O)/C(=C/c2ccc(-c3ccc([N+](=O)[O-])cc3)o2)C=C1c1ccccc1`, 20 µM produced 79% inhibition in assay [1].

In the case of `CCN(CC)CCCC(C)Nc1ccnc2cc(Cl)ccc12` (centres undefined) [CHLOROQUINE], the pIC50 in assay [2] was 4.43; in assay [3], 4.55.

For `CC1=NN(c2ccccc2)C(=O)/C1=C\c1ccc(-c2cc(C)c(C)cc2[N+](=O)[O-])o1`, in assay [2], the IC50 result is listed as “Not Active”. Further, in assay [3], the pIC50 is less than 4.48.

`Cc1cc(-c2ccc(/C=C3\C(=O)N(c4ccc(C(=O)O)cc4)N=C3C3CC3)s2)c(C(F)(F)F)cc1C`: the negative-log IC50 (pIC50) in assay [2] and in assay [3] was less than 4.48 throughout.

Turning to `CC1=NN(c2ccc(C(=O)O)cc2)C(=O)/C1=C\c1ccc(-c2ccccc2P(C)(C)=O)o1`, the IC50 entry in assay [2] and in assay [3] was “Not Active” throughout.

`CC1=NN(c2ccc(C(=O)O)cc2)C(=O)C1Cc1ccc(-c2cc(C)c(C)cc2[N+](=O)[O-])s1` (centres undefined): the IC50 result in assay [2] is listed as “Not Active”. The pIC50 in assay [3] is less than 4.48.

`CC1=NN(c2ccc(C(=O)O)cc2)C(=O)/C1=C\c1ccc(-c2cc(C)c(C)cc2[N+](=O)[O-])s1`: the negative logarithm of the IC50 (pIC50) in assay [2] is 4.93; in assay [3], 4.92.

With `CC1=NN(c2ccc(C(=O)O)cc2)C(=O)/C1=C\c1ccc(-c2ccc([N+](=O)[O-])cc2)s1`, the pIC50 is 5.28 in assay [2] and 5.22 in assay [3].

With `CC1=NN(c2ccc(C(=O)O)cc2)C(=O)C1Cc1ccc(-c2cc(C)c(C)cc2[N+](=O)[O-])o1` (centres undefined), the pIC50 in assay [2] and in assay [3] was less than 4.48 each time.

As for `O=C(O)CCN1C(=O)/C(=C\c2ccc(-c3ccc([N+](=O)[O-])cc3)o2)SC1=S`, the negative logarithm of the IC50 (pIC50) was 4.57 in assay [2] and 4.72 in assay [3].

On to `Cc1cc(-c2ccc(CC3C(=O)N(c4ccc(C(=O)O)cc4)N=C3C3CC3)s2)c([N+](=O)[O-])cc1C` (centres undefined), for which the negative logarithm of the IC50 (pIC50) in assay [2] and in assay [3] was less than 4.48 each time.

For `Cc1cc(-c2ccc(/C=C3\C(=O)N(c4ccc(C(=O)O)cc4)N=C3C3CC3)s2)c([N+](=O)[O-])cc1C`, the pIC50 was 4.65 in assay [2] and less than 4.48 in assay [3].

In the case of `CC(=O)c1cccc(-c2ccc(/C=C3\C=C(c4ccccc4)N(Cc4ccc(C(=O)O)cc4)C3=O)o2)c1`, the pIC50 was 4.56 in assay [2] and 4.83 in assay [3].

For the molecule `CC1=NN(c2ccc(C(=O)O)cc2)C(=O)/C1=C\c1ccc(-c2cc(C)c(C)cc2C(F)(F)F)o1`, the pIC50 in assay [2] was less than 4.48; in assay [3], 4.51.

Take `CC1=NN(c2ccc(C(=O)O)cc2)C(=O)C1Cc1ccc(-c2ccc([N+](=O)[O-])cc2)s1` (centres undefined): the pIC50 in assay [2] and in assay [3] was less than 4.48 each time.
